Data taken from PubChem BioAssay AID2060892 (Molecular Pharmacology Branch, DTP, NCI, 2025).

System: HOP-62 complex spheroids with HUVEC/MSC, viability
Assay: Anticancer human tumor HOP-62 cell line growth inhibition [RAS];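 note: spheroids exposed to agents for seven days before readout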;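 for viability, T/C: 100% = DMSO vehicle control viability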
Conditions: for IC50: curve of first compound; for viability, T/C: stronger effect = lower value
Procedure, shortened: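 Agents were tested in combination matrices in half-log decrements from a top concentration at or near clinical Cmax (10 microM if undetermined). Targets were multi-cell spheroids of tumour lines plus HUVEC and MSC stromal cells.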

**Q.** What does the source list for CC1(C)CCC(Nc2ncc(C(F)(F)F)c(-c3c[nH]c4c(P(C)(C)=O)c(C#N)ccc34)n2)CN1 (configuration not stated) + CCn1c(-c2cccnc2C(C)OC)c2c3cc(ccc31)N1CCOC(CC(NC(=O)C(C(C)C)N(C)C(=O)C3(F)CCN(C(=O)C#CC(C)(C)N(C)C)CC3)C(=O)N3CCCC(N3)C(=O)OCC(C)(C)C2)C1?
**A.** IC50 (second compound 0.000949 µM): > 300 nM; IC50 (second compound 0.003 µM): > 300 nM; IC50 (second compound 0.00949 µM): > 300 nM; IC50 (second compound 0.03 µM): 202 nM; IC50 (second compound 0.0949 µM): 31.2 nM; IC50 (second compound 0.3 µM): 2.99 nM; viability, T/C (second compound 0.000949 µM, first compound 0.000949 µM): 108%; viability, T/C (second compound 0.000949 µM, first compound 0.003 µM): 94.5%; viability, T/C (second compound 0.000949 µM, first compound 0.00949 µM): 61.2%; viability, T/C (second compound 0.000949 µM, first compound 0.03 µM): 68.8%; viability, T/C (second compound 0.000949 µM, first compound 0.0949 µM): 80.4%; viability, T/C (second compound 0.000949 µM, first compound 0.3 µM): 44.4%; viability, T/C (second compound 0.003 µM, first compound 0.000949 µM): 105%; viability, T/C (second compound 0.003 µM, first compound 0.003 µM): 78.5%; viability, T/C (second compound 0.003 µM, first compound 0.00949 µM): 62.7%; viability, T/C (second compound 0.003 µM, first compound 0.03 µM): 73.5%; viability, T/C (second compound 0.003 µM, first compound 0.0949 µM): 62%; viability, T/C (second compound 0.003 µM, first compound 0.3 µM): 49.6%; viability, T/C (second compound 0.00949 µM, first compound 0.000949 µM): 97.3%; viability, T/C (second compound 0.00949 µM, first compound 0.003 µM): 60.6%; viability, T/C (second compound 0.00949 µM, first compound 0.00949 µM): 65.2%; viability, T/C (second compound 0.00949 µM, first compound 0.03 µM): 66.7%; viability, T/C (second compound 0.00949 µM, first compound 0.0949 µM): 61.6%; viability, T/C (second compound 0.00949 µM, first compound 0.3 µM): 52.5%; viability, T/C (second compound 0.03 µM, first compound 0.000949 µM): 86.8%; viability, T/C (second compound 0.03 µM, first compound 0.003 µM): 72.3%; viability, T/C (second compound 0.03 µM, first compound 0.00949 µM): 58.2%; viability, T/C (second compound 0.03 µM, first compound 0.03 µM): 54.4%; viability, T/C (second compound 0.03 µM, first compound 0.0949 µM): 42.8%; viability, T/C (second compound 0.03 µM, first compound 0.3 µM): 55.6%; viability, T/C (second compound 0.0949 µM, first compound 0.000949 µM): 83.3%; viability, T/C (second compound 0.0949 µM, first compound 0.003 µM): 58.5%; viability, T/C (second compound 0.0949 µM, first compound 0.00949 µM): 59.7%; viability, T/C (second compound 0.0949 µM, first compound 0.03 µM): 55.8%; viability, T/C (second compound 0.0949 µM, first compound 0.0949 µM): 33.1%; viability, T/C (second compound 0.0949 µM, first compound 0.3 µM): 55.1%; viability, T/C (second compound 0.3 µM, first compound 0.000949 µM): 73.3%; viability, T/C (second compound 0.3 µM, first compound 0.003 µM): 49.8%; viability, T/C (second compound 0.3 µM, first compound 0.00949 µM): 46.1%; viability, T/C (second compound 0.3 µM, first compound 0.03 µM): 40.6%; viability, T/C (second compound 0.3 µM, first compound 0.0949 µM): 40.1%; viability, T/C (second compound 0.3 µM, first compound 0.3 µM): 49.2%
